Data reported in patent US9120787B2, “HIV replication inhibitors” (priority 2011, dated 2015).

What was measured:
[1] = Cytotoxicity by MTS staining in uninfected MAGI-CCR5 cells; type: cell-based; settings: human, read-out: TC50
Experimental: The anti-viral activity of dihydropyrimidines was shown by inhibition of virus replication in MAGI-CCR5 cells. MAGI-CCR5 cells are derived from HeLa-CD4-LTR-β-galactosidase cells. The cells have been engineered to express high levels of CD4 and CCR5 and contain one copy of the HIV-1 LTR promoter driving expression of the β-galactosidase gene upon HIV-1 Tat transactivation. On the day preceding the assay, the cells were plated at 1.0×10^4 cells per well and maintained at 37° C. and 5% CO2 in a humidified incubator. Total cell count and viability was visually assessed using a hemacytometer and trypan blue exclusion. Compounds were evaluated at six concentrations (triplicate wells/concentration). On the day of assay setup, compound dilutions were prepared at two-times (2×) the final concentrations. Media was decanted and wells were replenished with 50 μl of 2× compounds, followed by the addition of 50 μl of diluted virus. Identical uninfected assays were prepared for parallel cytotoxicity testing.

HIV-1Ba-L [2] = experiment: Inhibition of virus replication in MAGI-CCR5 cells (β-galactosidase reporter); type: cell-based; settings: HIV-1Ba-L in MAGI-CCR5 cells; for IC50: 48 hours, β-galactosidase reporter expression, read-out: IC50
Experimental: The anti-viral activity of dihydropyrimidines was shown by inhibition of virus replication in MAGI-CCR5 cells. MAGI-CCR5 cells are derived from HeLa-CD4-LTR-β-galactosidase cells. The cells have been engineered to express high levels of CD4 and CCR5 and contain one copy of the HIV-1 LTR promoter driving expression of the β-galactosidase gene upon HIV-1 Tat transactivation. On the day preceding the assay, the cells were plated at 1.0×10^4 cells per well and maintained at 37° C. and 5% CO2 in a humidified incubator. Total cell count and viability was visually assessed using a hemacytometer and trypan blue exclusion.
Compounds were evaluated at six concentrations (triplicate wells/concentration). On the day of assay setup, compound dilutions were prepared at two-times (2×) the final concentrations. Media was decanted and wells were replenished with 50 μl of 2× compounds, followed by the addition of 50 μl of diluted virus. Identical uninfected assays were prepared for parallel cytotoxicity testing.
Evaluation of Dihydropyrimidines vs. HIV-1Ba-L in MAGI-CCR5 Cells

HIV-1Ba-L [3] = experiment: HIV-1Ba-L replication in PBMCs (supernatant RT end-point); settings: HIV-1Ba-L in PBMCs, seven days, RT end-point
Experimental: Evaluation of Dihydropyrimidines vs. HIV-1Ba-L in Peripheral Blood Mononuclear Cells (PBMCs)
Cultures of pooled phytohemagglutinin stimulated peripheral blood mononuclear cells (PBMC) were seeded into a 96-well plate at plating density of 5×10^4 cells/well. Compounds were serially diluted into media in ½-log increments using a high test of […] and […] of each concentration (nine total concentrations). Cells were infected with HIV strains HIV-1Ba-L and NL4-3 at an MOI=0.1. The PBMCs were cultured for seven days in an humidified incubator maintained at 37° C., 5% CO2 atmosphere. At the assay end-point, the supernatant was collected and analyzed for reverse transcriptase activity. For the RT assay, tritiated thymidine triphosphate (3H-TTP, 80 Ci/mmol) was diluted 1:1 dH2O:Ethanol at 1 mCi/ml. Poly rA:oligo dT template:primer was prepared as a stock solution by combining 150 μl poly rA (20 mg/ml) with 0.5 mL oligo dT (20 units/ml) and 5.35 ml sterile dH2O followed by aliquoting (1.0 ml) and storage at −20° C. The RT reaction buffer contained of 125 ml 1.0 M EGTA, 125 ml dH2O, 125 ml 20% Triton X100, 50 ml 1.0 M Tris (pH 7.4), 50 ml 1.0 M DTT, and 40 ml 1.0 M MgCl2. The final reaction mixture was prepared by combining 1 part 3H-TTP, 4 parts dH2O, 2.5 parts poly rA:oligo dT stock and 2.5 parts reaction buffer. To each well, ten microliters of the reaction mixture and 15 μl of virus containing supernatant were added. The plates were incubated at 37° C. for 60 minutes. Following incubation, the reaction volume was spotted onto DE81 filter-mats, washed 5 times for 5 minutes each in a 5% sodium phosphate buffer or 2×SSC. […] were washed 2 times for 1 minute each in distilled water, 2 times for 1 minute each in 70% ethanol, and then dried. Incorporated radioactivity (counts per minute, CPM) was quantified using standard liquid scintillation techniques.

CC1=C(c2nc(-c3cccc(C#N)c3)cs2)C(c2cccc(O)c2)NC(=O)N1 (centres unmarked) [Example 66]
CC50 at 48 h [1]: 50 to 100 µM
TI (TC50/IC50) (HIV-1Ba-L [2]): D (D < 10.0)
IC50 (HIV-1Ba-L [2]; Human immunodeficiency virus 1): 5 to 100 µM

CC1=C(c2nc(-c3ccc(C)cc3)cs2)C(c2cccc(O)c2)NC(=O)N1 (centres unmarked) [Example 73]
CC50 at 48 h [1]: 50 to 100 µM
TI (TC50/IC50) (HIV-1Ba-L [2]): D (D < 10.0)
IC50 (HIV-1Ba-L [2]; Human immunodeficiency virus 1): 5 to 100 µM

CC1=C(c2nc(-c3ccc(C#N)cc3)cs2)C(c2ccncc2)NC(=O)N1 (centres unmarked) [Example 9]
CC50 at 48 h [1]: ≥ 100 µM
TI (TC50/IC50) (HIV-1Ba-L [2]): C (C < 50.0 to 10.0)
IC50 (HIV-1Ba-L [2]; Human immunodeficiency virus 1): 1 to 5 µM

COc1ncccc1C1NC(=O)NC(C)=C1c1nc(-c2ccc(C#N)cc2)cs1 (centres unmarked) [Example 27]
CC50 at 48 h [1]: ≥ 100 µM
TI (TC50/IC50) (HIV-1Ba-L [2]): C (C < 50.0 to 10.0)
IC50 (HIV-1Ba-L [2]; Human immunodeficiency virus 1): 5 to 100 µM

CC1=C(c2nc(-c3ccc(C#N)cc3C)cs2)C(c2cccnc2F)NC(=O)N1 (centres unmarked) [Example 82]
CC50 at 48 h [1]: 50 to 100 µM
TI (TC50/IC50) (HIV-1Ba-L [2]): A (A = TI (TC50/IC50) ≧ 100.0)
IC50 (HIV-1Ba-L [2]; Human immunodeficiency virus 1): < 1 µM

CC1=C(c2nc(-c3ccc(C#N)cc3)cs2)C(c2nccn2C)NC(=O)N1 (centres unmarked) [Example 16]
CC50 at 48 h [1]: ≥ 100 µM
TI (TC50/IC50) (HIV-1Ba-L [2]): D (D < 10.0)
IC50 (HIV-1Ba-L [2]; Human immunodeficiency virus 1): > 100 µM

COc1ncc(C2NC(=O)NC(C)=C2c2nc(-c3ccc(C#N)cc3)cs2)c(OC)n1 (centres unmarked) [Example 32]
CC50 at 48 h [1]: ≥ 100 µM
TI (TC50/IC50) (HIV-1Ba-L [2]): D (D < 10.0)
IC50 (HIV-1Ba-L [2]; Human immunodeficiency virus 1): 5 to 100 µM

CC1=C(c2nc(-c3ccc(C#N)cc3)cs2)C(c2cccnc2Cl)NC(=O)N1 (centres unmarked) [Example 4]
CC50 at 48 h [1]: ≥ 100 µM
TI (TC50/IC50) (HIV-1Ba-L [2]): C (C < 50.0 to 10.0)
IC50 (HIV-1Ba-L [2]; Human immunodeficiency virus 1): 1 to 5 µM

CC1=C(c2nc(-c3ccc(C#N)cc3)cs2)C(c2ccc(F)c([N+](=O)[O-])c2)NC(=O)N1 (centres unmarked) [Example 60]
CC50 at 48 h [1]: ≥ 100 µM
TI (TC50/IC50) (HIV-1Ba-L [2]): C (C < 50.0 to 10.0)
IC50 (HIV-1Ba-L [2]; Human immunodeficiency virus 1): 5 to 100 µM

COc1ccc(-c2csc(C3=C(C)NC(=O)NC3c3ccc(Cl)nc3)n2)cc1 (centres unmarked) [Example 41]
CC50 at 48 h [1]: 50 to 100 µM
TI (TC50/IC50) (HIV-1Ba-L [2]): D (D < 10.0)
IC50 (HIV-1Ba-L [2]; Human immunodeficiency virus 1): 5 to 100 µM

CC1=C(c2nc(-c3ccc(C#N)cc3)cs2)C(c2ccc(F)cc2)NC(=O)N1 (centres unmarked) [Example 49]
CC50 at 48 h [1]: ≥ 100 µM
TI (TC50/IC50) (HIV-1Ba-L [2]): C (C < 50.0 to 10.0)
IC50 (HIV-1Ba-L [2]; Human immunodeficiency virus 1): 1 to 5 µM

CC1=C(c2nc(-c3ccc([N+](=O)[O-])cc3)cs2)C(c2cccc(O)c2)NC(=O)N1 (centres unmarked) [Example 76]
CC50 at 48 h [1]: ≥ 100 µM
TI (TC50/IC50) (HIV-1Ba-L [2]): A (A = TI (TC50/IC50) ≧ 100.0)
IC50 (HIV-1Ba-L [2]; Human immunodeficiency virus 1): < 1 µM

COc1ccc(-c2csc(C3=C(C)NC(=O)NC3c3cccc(C(F)(F)F)c3)n2)cc1 (centres unmarked) [Example 45]
CC50 at 48 h [1]: ≥ 100 µM
TI (TC50/IC50) (HIV-1Ba-L [2]): D (D < 10.0)
IC50 (HIV-1Ba-L [2]; Human immunodeficiency virus 1): > 100 µM

CC1=C(c2nc(-c3ccc(C#N)cc3)cs2)C(c2cc3ccccc3nc2Cl)NC(=O)N1 (centres unmarked) [Example 5]
CC50 at 48 h [1]: ≥ 100 µM
TI (TC50/IC50) (HIV-1Ba-L [2]): D (D < 10.0)
IC50 (HIV-1Ba-L [2]; Human immunodeficiency virus 1): 5 to 100 µM

Maraviroc [reference compound]
IC50 (HIV-1Ba-L [3]): 0.009 µM
IC50 (HIV-1Ba-L [2]): 0.0006 µM

CC1=C(c2nc(-c3ccc(C#N)cc3)cs2)C(c2ccc(C#N)c(F)c2)NC(=O)N1 (centres unmarked) [Example 57]
CC50 at 48 h [1]: ≥ 100 µM
TI (TC50/IC50) (HIV-1Ba-L [2]): C (C < 50.0 to 10.0)
IC50 (HIV-1Ba-L [2]; Human immunodeficiency virus 1): 5 to 100 µM

CC1=C(c2nc(-c3ccc(C#N)cc3)cs2)C(c2cc(Br)cs2)NC(=O)N1 (centres unmarked) [Example 13]
CC50 at 48 h [1]: ≥ 100 µM
TI (TC50/IC50) (HIV-1Ba-L [2]): D (D < 10.0)
IC50 (HIV-1Ba-L [2]; Human immunodeficiency virus 1): 5 to 100 µM

CC1=C(c2nc(-c3ccc(C#N)cc3)cs2)C(c2cccnc2)NC(=O)N1 (centres unmarked) [Example 8]
CC50 at 48 h [1]: ≥ 100 µM
TI (TC50/IC50) (HIV-1Ba-L [2]): C (C < 50.0 to 10.0)
IC50 (HIV-1Ba-L [2]; Human immunodeficiency virus 1): 1 to 5 µM
